{"source": "paper PMC5253331", "about": "(Biochemical and biophysical research communications, 2016)", "key": {"[1]": {"target": "human PD-L1 on CHO cells stably expressing human PD-L1 (human) (UniProt Q9NZQ7)", "sequence (Q9NZQ7 19-290)": "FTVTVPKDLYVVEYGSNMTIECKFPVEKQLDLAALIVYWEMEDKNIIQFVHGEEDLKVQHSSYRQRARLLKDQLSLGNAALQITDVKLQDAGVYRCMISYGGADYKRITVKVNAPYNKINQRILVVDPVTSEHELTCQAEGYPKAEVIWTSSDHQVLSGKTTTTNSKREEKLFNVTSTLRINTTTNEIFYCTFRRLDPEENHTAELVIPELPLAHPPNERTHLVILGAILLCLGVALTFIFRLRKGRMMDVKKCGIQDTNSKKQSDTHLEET", "assay": "ex vivo biodistribution with blocking dose"}, "[2]": {"target": "recombinant human PD-L1(B7-H1)-His-tag protein (human) (UniProt Q9NZQ7)", "sequence (Q9NZQ7 19-238)": "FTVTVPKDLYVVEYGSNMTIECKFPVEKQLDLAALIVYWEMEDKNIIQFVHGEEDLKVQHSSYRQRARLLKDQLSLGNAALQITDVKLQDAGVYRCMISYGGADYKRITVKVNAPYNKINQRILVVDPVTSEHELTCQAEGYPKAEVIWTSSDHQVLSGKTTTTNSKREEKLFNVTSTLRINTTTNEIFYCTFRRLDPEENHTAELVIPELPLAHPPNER", "assay": "AlphaScreen or HTRF"}, "[3]": {"target": "human PD-L1 on CHO cells stably expressing human PD-L1 (human) (UniProt Q9NZQ7)", "assay": "radioligand binding"}, "[4]": {"target": "human PD-L1 on CHO cells stably expressing human PD-L1 (human) (UniProt Q9NZQ7)", "assay": "PET imaging and ex vivo biodistribution"}, "[5]": {"tested_on": "hPD-L1 cells (CHO stably expressing human PD-L1) vs CHO cells", "assay": "In vitro binding/uptake of [64Cu]WL12 in hPD-L1 and CHO cells", "type": "cell-based, Chinese hamster"}, "[6]": {"tested_on": "MDAMB231 and SUM149 cells", "type": "cell-based, human", "details": "MDAMB231 high, SUM149 low PD-L1 expression"}, "hPD-L1 and CHO tumors": {"tested_on": "hPD-L1 and CHO tumors", "assay": "Ex vivo biodistribution and blocking in NSG mice with hPD-L1 and CHO tumors", "set-up": "species or system mouse", "details": "co-injected with excess WL12 (50 μg, 2 mg/kg), 2 h"}}, "data": [{"compound": "WL12 (peptide)", "values": [{"measurement": "percent reduction in %ID/g of [64Cu]WL12 in hPD-L1 tumors with excess WL12", "setting": "[1]", "result": "> 75", "unit": "%"}, {"measurement": "IC50", "setting": "[2]", "result": 0.022, "unit": "µM"}]}, {"compound": "[64Cu]WL12 (peptide)", "values": [{"measurement": "percent uptake of the incubated dose", "setting": "[3]", "result": "> 50", "unit": "%"}, {"measurement": "tumor uptake at 1 h (%ID/g)", "setting": "[4]", "result": 14.9, "unit": "%ID/g"}]}, {"compound": "WL12-Cu (peptide)", "values": [{"measurement": "IC50", "setting": "[2]", "result": 0.0029, "unit": "µM"}]}, {"compound": "CCCC[C@H]1C(=O)N(C)[C@@H](CCCC)C(=O)N[C@@H](CCCNC(=O)CCC(C(=O)O)N2CCN(CC(=O)O)CCN(CC(=O)O)CCN(CC(=O)O)CC2)C(=O)N[C@H](C(=O)NCC(N)=O)CSCC(=O)N[C@@H](Cc2ccc(O)cc2)C(=O)N(C)[C@@H](C)C(=O)N[C@@H](CC(N)=O)C(=O)N2CCC[C@H]2C(=O)N[C@@H](Cc2c[nH]cn2)C(=O)N[C@@H](CC(C)C)C(=O)N2C[C@H](O)C[C@H]2C(=O)N[C@@H](Cc2c[nH]c3ccccc23)C(=O)N[C@@H](CO)C(=O)N[C@@H](Cc2cn(C)c3ccccc23)C(=O)N1C", "note": "(some centres unmarked) [[^64Cu]WL12, metal not drawn]", "values": [{"measurement": "uptake of the incubated dose in hPD-L1 cells", "setting": "[5]; hPD-L1 cells incubated with [64Cu]WL12 for 1 h", "result": "> 50", "unit": "%"}, {"measurement": "reduction in bound [64Cu]WL12 in the presence of blocking dose of WL12", "setting": "[5]; hPD-L1 cells, 1 μM blocking dose of WL12", "result": "> 95", "unit": "%"}, {"measurement": "increase in bound radioactivity in hPD-L1 cells compared to negative control CHO cells", "setting": "[5]; incubation 1 h", "result": 43, "unit": "fold"}, {"measurement": "uptake of radioactivity in MDAMB231 cells compared to SUM149 cells", "setting": "[6]", "result": "Two-fold higher"}, {"measurement": "change in %ID/g in control CHO tumors on blocking", "setting": "hPD-L1 and CHO tumors", "result": "no significant difference"}, {"measurement": "change in kidney uptake on blocking", "setting": "hPD-L1 and CHO tumors", "result": "reduced uptake"}]}]}
